The values below come from patent US20030035812A1, “Immune enhancement compositions and use thereof” (priority 2000, published 2003).

The test system of one assay is macrophages. Kind of assay: Number of macrophages sampled from the abdominal cavity 14 days after vaccine inoculation. The class given is in vivo, mouse. The note with it: 500 CIU vaccine, 14 days after inoculation. As for the experimental part:
(§1) The administration of provitamin and inoculation of a vaccine (500 CIU) were performed in the same manner as in Example 1. 14 Days after the inoculation of the vaccine, macrophages were sampled from the abdominal cavity of the mouse and the number of macrophages was counted through a microscope. Also, the activity of the macrophage was examined as follows. Fibrosarcoma SMT-5 (target cell) and the sampled macrophages (effector cell) were mixed at a ratio of 1:7 and cultured in CO2 medium for 24 hours. 8 Hours before the completion of culture, ^3H-thymidine was added and the amount of ^3H-thymidine taken up into the residual target cells was measured by a liquid scintillation counter. From the value obtained, the activity of macrophage was determined. The amount of ^3H-thymidine in the control group was the amount of ^3H-thymidine taken up into the target cells where the macrophages were not added.

The test system of assay [1] is Sendai virus strongly toxic strain. The assay can be described thus: Survival rate after nasal infection with Sendai virus strongly toxic strain. In kind it is in vivo, mouse. The note with it: challenge 15 LD50 at day 14, 20 days after infection. As for the experimental part: The administration of provitamin and inoculation of a vaccine were performed in the same manner as in Example 1, and 14 days after the inoculation of attenuated vaccine, Sendai virus strongly toxic strain (1.7×10^7 CIU/ml) was subjected to 15-hold dilution in PBS. Subsequently, 70 μl of the dilution (about 8×10^4 CIU:15 LD50) was nasally infected to a mouse under ether anesthesia and 20 days after the infection with the strongly toxic strain, the survival rate of mice was examined.
The test solution was step-diluted and each dilution was used for a group of animals. The life and death were examined and the point of dilution degree where 50% of death was recognized was designated as LD50.

In assay [2] the test system is Sendai virus. The assay can be described thus: Secretory IgA induction by Sendai virus live vaccine, trachea and bronchia wash, ELISA. In kind it is in vivo, mouse. The note with it: 500 CIU vaccine, 14 days after inoculation. The method, then:
The administraion of provitamin and inoculation of a vaccine were performed in the same manner as in Example 1. 14 Days after the inoculation of vaccine, the mouse was sacrificed, the trachea and bronchia were twice washed with 1 ml of PBS (phosphate buffered saline), and IgA recovered in PBS was measured by the enzyme linked immunosorbent assay (ELISA).
Sendai virus was fixed on a plate and reacted with a test solution. Thereafter, peroxidase marker anti-mouse IgA immunoglobulin was reacted and then phenylenediamine 2HCl was added to cause coloration. OD 492 was measured and from the calibration curve obtained based on the standard IgA, the IgA amount in the test solution was determined.

In assay [3] the test system is Sendai virus. Kind of assay: Circulating antibody unit (HIU) in serum by hemagglutination inhibition (HI) reaction after vaccine administration. In kind it is in vivo, mouse. The conditions noted are these: 500 CIU vaccine nasally. As for the experimental part: The provitamins prepared to have a composition in the following Formulation Examples 1 to 4 were individually or in combination (hereinafter referred to as “provitamin”) dissolved in a phosphate buffered saline (PBS) to a concentration of 0.5% and then continuously administered perorally or peritoneally to a mouse (ICR, 3 weeks old, male) from two weeks before the administration of a vaccine. The sample was administered such that APM per day was 80 mg/kg-body weight in the case of peroral administration and the dose per day was 40 mg/kg-body weight in the case of injection.
The vaccine used here was TR-5 strain which is an attenuated strain of Sendai virus, and 500 CIU (cell infectious unit) thereof was nasally administered to a mouse under ether anesthesia. That is, a stock solution (10^6 CIU/ml) of TR-5 strain was diluted with PBS and 50 μl of each sample was nasally administered. After the administration of vaccine, the serum was sampled in aging (inoculation day, after 7 days, after 14 days and after 21 days) and the antiviral antibody unit in the serum was measured by the hemagglutination inhibition (HI) reaction which inhibits the hemagglutination (HA) reaction.
The HA reaction is a reaction where a virus particle or an HA antigen adsorbs to an erythrocyte and combines the erythrocytes with each other to cause hemagglutination. In the measurement of the HA unit, 2-fold step dilution series of a virus solution are prepared, a constant amount of erythrocytes is added to each dilution and after the passing of a predetermined time, the agglutination image is examined. The HA unit (HAU) is the reciprocal of the highest dilution number in a test tube showing agglutination positive. The HA reaction is inhibited by previously adding an antiviral antibody to the virus solution. This is the HI reaction.
To 25 μl of a serum subjected to 2-fold step dilution, 25 μl of a virus solution adjusted to 16 HAU was added and allowed to stand at room temperature for 1 hour. Subsequently, 50 μl of a 0.5% chicken erythrocyte suspension was added and allowed to stand at 4° C. for 1 hour. Thereafter, the HI unit was determined.

Assay [4] relates to Fibrosarcoma SMT-5 (target cell). The assay can be described thus: Activity of sampled macrophages against target cells (3H-thymidine uptake). In kind it is cell-based, mouse. The note with it: 500 CIU vaccine, macrophages sampled day 14, target:effector 1:7, 24 hours. The method, then: as §1
[5] abbreviates: peroral, amount of vaccine inoculated 0 CIU.
The mark [6] stands for this setting: peroral, amount of vaccine inoculated 50 CIU.
Setting [7] is: peroral, amount of vaccine inoculated 500 CIU.
Setting [8] is: peritoneal administration of provitamin 40 mg/kg per day, day 0.
[9] abbreviates: peritoneal administration of provitamin 40 mg/kg per day, day 7.
[10] abbreviates: peritoneal administration of provitamin 40 mg/kg per day, day 14.
Where [11] appears, read: peritoneal administration of provitamin 40 mg/kg per day, day 21.
[12] abbreviates: peroral administration of provitamin 80 mg/kg per day, day 0 after inoculation.
Where [13] appears, read: peroral administration of provitamin 80 mg/kg per day, day 7.
Where [14] appears, read: peroral administration of provitamin 80 mg/kg per day, day 14.
The mark [15] stands for this setting: peroral administration of provitamin 80 mg/kg per day, day 21.

A value given as a limit tells only on which side of the number the result lay.

In the case of `O=C1O[C@H]([C@@H](O)CO)C(O)=C1OP(=O)(O)O` [Formulation Example 1, L-ascorbic acid-2-monophosphate], the figures for the Macrophage/Body with macrophages (peritoneal route) and with macrophages (peroral route) were 9.1 × 10^6 and 6.8 × 10^6, respectively. In addition, the “Survival Rate” value is recorded as 0/10 in assay [1] (peritoneal, amount of vaccine inoculated 0 CIU); 8/10 in assay [1] (peritoneal, amount of vaccine inoculated 50 CIU); 8/10 in assay [1] (peritoneal, amount of vaccine inoculated 500 CIU); 0/10 in assay [1] (setting [5]); 9/10 in assay [1] (setting [6]); 9/10 in assay [1] (setting [7]). Moreover, the IgA with Sendai virus [2] (peritoneal route) came out at 69 U/μg; in the assay on Sendai virus [2] (peroral route) it was 51 U/μg. Further, the HIU is less than 16 HIU with Sendai virus [3] (setting [8]); 16 HIU with Sendai virus [3] (setting [9]); 32 HIU with Sendai virus [3] (setting [10]); 64 HIU in the assay on Sendai virus [3] (setting [11]); less than 16 HIU in the assay with Sendai virus [3] (setting [12]); less than 16 HIU in the assay with Sendai virus [3] (setting [13]). In addition, the HIU in the assay on Sendai virus [3] (setting [14]) turned out to be 16 HIU; in the assay with Sendai virus [3] (setting [15]), 64 HIU. In addition, the “Macrophage Activity” value is recorded as 22.1 in assay [4] (peritoneal route) and 20.5 in assay [4] (peroral route).
For `O=C1O[C@H]([C@@H](O)CO)C(O)=C1OP(=O)(O)O` [Formulation Example 2, L-ascorbic acid-2-monophosphate], in the assay on macrophages (peroral route), the Macrophage/Body is 6.5 × 10^6. Besides, the entries for the “Survival Rate” value in assay [1] (setting [5]), in assay [1] (setting [6]) and in assay [1] (setting [7]) were 1/10, 9/10 and 10/10, respectively. The IgA in the assay with Sendai virus [2] (peroral route) worked out at 69 U/μg. The HIU is given as less than 16 HIU in the assay on Sendai virus [3] (setting [8]); less than 16 HIU with Sendai virus [3] (setting [9]); 32 HIU with Sendai virus [3] (setting [10]); 64 HIU in the assay on Sendai virus [3] (setting [11]); less than 16 HIU in the assay with Sendai virus [3] (setting [12]); less than 16 HIU with Sendai virus [3] (setting [13]). For the same compound, the HIU with Sendai virus [3] (setting [14]) worked out at 16 HIU; with Sendai virus [3] (setting [15]) it was 64 HIU. In addition, the “Macrophage Activity” value in assay [4] (peroral route) amounted to 20.2.
